Experimental data reported in article PMC11510805, “In Vivo Effects of a GHR Synthesis Inhibitor During Prolonged Treatment in Dogs” (Pharmaceuticals, 2024).

Key:
CYP2C19 = CYP2C19 (Homo sapiens, UniProt P33261); conditions: human liver microsomes
CYP2C8 = target: T1, CYP2C8 (Homo sapiens, UniProt P10632); conditions: human liver microsomes
T1 sequence (P10632 1-490): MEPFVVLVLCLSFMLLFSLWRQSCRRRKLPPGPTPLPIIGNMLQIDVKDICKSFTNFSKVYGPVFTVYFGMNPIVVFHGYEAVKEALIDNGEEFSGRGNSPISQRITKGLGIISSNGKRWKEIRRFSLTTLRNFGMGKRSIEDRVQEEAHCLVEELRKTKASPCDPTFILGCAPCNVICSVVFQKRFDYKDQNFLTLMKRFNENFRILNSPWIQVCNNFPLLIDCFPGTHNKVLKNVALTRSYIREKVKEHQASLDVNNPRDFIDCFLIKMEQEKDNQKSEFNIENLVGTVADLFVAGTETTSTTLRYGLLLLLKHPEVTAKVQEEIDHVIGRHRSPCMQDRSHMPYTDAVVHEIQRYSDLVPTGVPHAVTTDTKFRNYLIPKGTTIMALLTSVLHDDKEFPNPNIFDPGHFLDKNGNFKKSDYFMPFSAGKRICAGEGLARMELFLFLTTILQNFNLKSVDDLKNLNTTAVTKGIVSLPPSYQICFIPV

CYP2C19, sequence (P33261 whole entry): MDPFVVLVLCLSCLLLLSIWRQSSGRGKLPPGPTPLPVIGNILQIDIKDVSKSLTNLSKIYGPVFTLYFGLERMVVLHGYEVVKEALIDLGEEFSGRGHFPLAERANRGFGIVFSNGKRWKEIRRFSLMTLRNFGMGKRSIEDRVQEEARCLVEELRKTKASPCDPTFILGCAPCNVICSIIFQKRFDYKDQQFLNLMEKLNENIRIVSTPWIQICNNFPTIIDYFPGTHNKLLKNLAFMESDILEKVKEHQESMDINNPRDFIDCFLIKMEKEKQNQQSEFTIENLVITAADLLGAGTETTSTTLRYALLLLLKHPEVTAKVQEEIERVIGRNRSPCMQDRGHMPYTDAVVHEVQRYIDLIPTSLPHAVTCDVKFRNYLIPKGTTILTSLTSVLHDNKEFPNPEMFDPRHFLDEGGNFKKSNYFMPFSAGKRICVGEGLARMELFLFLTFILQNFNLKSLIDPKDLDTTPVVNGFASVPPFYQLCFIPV

CYP2C19 Imax of reference inhibitor (CYP2C19) [%] | CYP2C8 Imax of reference inhibitor (CYP2C8) [%] | Structure (SMILES)
87 |  | C=C(C)[C@@H]1CCC2=CC(=O)C[C@@H](C)[C@]2(C)C1 [Nootkatone]
 | 88 | O=c1c(O)c(-c2ccc(O)c(O)c2)oc2cc(O)cc(O)c12 [Quercetin]
